Data published in patent US7329652B2, “Diaminotriazole compounds useful as protein kinase inhibitors” (Vertex Pharamaceuticals Incorporated, priority 2004, dated 2008).
Like-named read-outs stand apart in the source and are kept apart here.

How the values were obtained:
JAK3 = biological target: T1, JAK3 (Homo sapiens, UniProt P52333); test: JAK3 inhibition assay (radiometric 33P filter assay); assay type: biochemical
T1 sequence (P52333 1-1124): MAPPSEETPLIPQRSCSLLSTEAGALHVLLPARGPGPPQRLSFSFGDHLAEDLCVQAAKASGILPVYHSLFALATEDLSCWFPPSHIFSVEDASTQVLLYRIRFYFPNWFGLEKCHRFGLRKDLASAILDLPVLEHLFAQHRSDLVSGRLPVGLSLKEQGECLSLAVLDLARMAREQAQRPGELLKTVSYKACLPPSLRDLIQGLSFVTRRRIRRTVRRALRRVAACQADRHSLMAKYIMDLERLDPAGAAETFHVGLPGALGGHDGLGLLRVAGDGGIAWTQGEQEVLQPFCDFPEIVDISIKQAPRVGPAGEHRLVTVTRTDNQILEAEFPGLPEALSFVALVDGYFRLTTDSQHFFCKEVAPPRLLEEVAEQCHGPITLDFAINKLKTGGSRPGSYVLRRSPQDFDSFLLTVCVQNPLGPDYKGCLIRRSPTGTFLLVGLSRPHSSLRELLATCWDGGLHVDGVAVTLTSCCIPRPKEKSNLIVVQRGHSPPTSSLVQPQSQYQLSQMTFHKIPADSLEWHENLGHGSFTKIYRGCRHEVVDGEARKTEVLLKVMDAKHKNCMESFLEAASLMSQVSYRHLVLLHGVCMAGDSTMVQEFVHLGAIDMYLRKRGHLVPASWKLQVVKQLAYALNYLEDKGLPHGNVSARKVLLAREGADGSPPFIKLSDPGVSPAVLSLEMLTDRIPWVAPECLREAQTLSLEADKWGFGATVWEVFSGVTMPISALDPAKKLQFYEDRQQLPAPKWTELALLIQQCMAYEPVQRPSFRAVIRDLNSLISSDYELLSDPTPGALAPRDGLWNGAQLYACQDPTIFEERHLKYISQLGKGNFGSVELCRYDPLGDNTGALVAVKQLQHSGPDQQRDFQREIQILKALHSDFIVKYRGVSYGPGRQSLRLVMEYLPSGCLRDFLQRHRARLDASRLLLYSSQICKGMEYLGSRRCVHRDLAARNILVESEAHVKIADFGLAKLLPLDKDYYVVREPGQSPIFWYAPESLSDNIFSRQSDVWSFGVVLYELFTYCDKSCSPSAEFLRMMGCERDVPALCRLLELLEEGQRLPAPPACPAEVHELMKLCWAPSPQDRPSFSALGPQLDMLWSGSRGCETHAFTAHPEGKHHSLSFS
Description: (§1) Compounds were screened for their ability to inhibit JAK using the assay shown below. Reactions were carried out in a kinase buffer containing 100 mM HEPES (pH 7.4), 1 mM DTT, 10 mM MgCl2, 25 mM NaCl, and 0.01% BSA.
(§2) Substrate concentrations in the assay were 5 μM ATP (200 uCi/μmole ATP) and 1 μM poly(Glu)4Tyr. Reactions were carried out at 25° C. and 1 nM JAK3.
(§3) To each well of a 96 well polycarbonate plate was added 1.5 μl of a candidate JAK3 inhibitor along with 50 μl of kinase buffer containing 2 μM poly(Glu)4Tyr and 10 μM ATP. This was then mixed and 50 μl of kinase buffer containing 2 nM JAK3 enzyme was added to start the reaction. After 20 minutes at room temperature (25° C.), the reaction was stopped with 50 μl of 20% trichloroacetic acid (TCA) that also contained 0.4 mM ATP. The entire contents of each well were then transferred to a 96 well glass fiber filter plate using a TomTek Cell Harvester. After washing, 60 μl of scintillation fluid was added and ^33P incorporation detected on a Perkin Elmer TopCount.

JAK-2 enzyme = JAK-2 enzyme (Homo sapiens, UniProt O60674); test: JAK2 inhibition assay (radiometric 33P filter assay); assay type: biochemical
JAK-2 enzyme, sequence (O60674 whole entry, species assumed): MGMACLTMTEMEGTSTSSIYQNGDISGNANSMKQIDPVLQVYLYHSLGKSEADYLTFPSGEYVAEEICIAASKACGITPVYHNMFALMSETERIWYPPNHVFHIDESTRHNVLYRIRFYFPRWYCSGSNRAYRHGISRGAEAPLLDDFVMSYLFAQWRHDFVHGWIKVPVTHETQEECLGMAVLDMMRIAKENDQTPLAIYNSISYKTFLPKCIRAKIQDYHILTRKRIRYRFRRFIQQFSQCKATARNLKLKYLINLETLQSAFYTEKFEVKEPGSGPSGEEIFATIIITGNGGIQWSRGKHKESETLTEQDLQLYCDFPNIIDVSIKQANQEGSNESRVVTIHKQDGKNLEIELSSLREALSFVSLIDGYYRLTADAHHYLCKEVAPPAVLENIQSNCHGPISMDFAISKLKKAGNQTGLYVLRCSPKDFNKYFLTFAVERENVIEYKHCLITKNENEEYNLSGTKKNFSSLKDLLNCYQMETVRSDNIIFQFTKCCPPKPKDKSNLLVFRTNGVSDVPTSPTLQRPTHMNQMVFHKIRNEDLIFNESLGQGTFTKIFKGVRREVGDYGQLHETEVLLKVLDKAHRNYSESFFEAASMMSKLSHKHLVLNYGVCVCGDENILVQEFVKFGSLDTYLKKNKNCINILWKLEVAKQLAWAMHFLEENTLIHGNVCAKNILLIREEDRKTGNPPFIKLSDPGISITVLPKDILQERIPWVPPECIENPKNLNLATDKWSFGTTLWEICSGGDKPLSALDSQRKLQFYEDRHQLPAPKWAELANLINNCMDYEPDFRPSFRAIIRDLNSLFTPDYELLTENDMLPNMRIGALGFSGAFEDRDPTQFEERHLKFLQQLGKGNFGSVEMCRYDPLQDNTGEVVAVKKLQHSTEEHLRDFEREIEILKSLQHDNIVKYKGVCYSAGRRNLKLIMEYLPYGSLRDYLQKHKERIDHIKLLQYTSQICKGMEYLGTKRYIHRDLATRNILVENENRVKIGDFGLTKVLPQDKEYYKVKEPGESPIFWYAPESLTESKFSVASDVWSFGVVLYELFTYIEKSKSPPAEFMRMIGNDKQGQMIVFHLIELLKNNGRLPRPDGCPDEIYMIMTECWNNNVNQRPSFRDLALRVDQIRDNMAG
Description: as §1, §2, §3
The assays were as described above in Example 25 except that JAK-2 enzyme was used, the final poly(Glu)4Tyr concentration was 15 μM, and final ATP concentration was 12 μM.

[1] = 1 μM poly(Glu)4Tyr, 5 μM ATP, 1 nM JAK3, 25° C., read-out: JAK3 inhibition data (Ki)
[2] = 15 μM poly(Glu)4Tyr, 12 μM ATP, read-out: JAK2 inhibition data (Ki)

SMILES	Ki (JAK3; [1]) [nM]	Ki (JAK-2 enzyme; [2]) [nM]	Ki (JAK3) [nM]	Ki (JAK-2 enzyme) [nM]
CCCNC(=O)Nc1ccc(Nc2nc(N)n(-c3cc(N4CCCN(C(C)=O)CC4)ncn3)n2)cc1 [Compound 85]	< 50	< 50	–	–
CC(=O)N1CCCN(c2cc(-n3nc(Nc4ccc(N(C)C(=O)OCC(C)(C)C)cc4)nc3N)ncn2)CC1 [Compound 132]	< 50	< 50	–	–
CC(=O)N1CCCN(c2cc(-n3nc(Nc4ccc(NC(=O)NC(C)(C)C)cc4)nc3N)ncn2)CC1 [Compound 87]	< 50	< 50	–	–
CC(=O)N1CCCN(c2cc(-n3nc(Nc4ccc(N5CCN(C(=O)CC(C)C)CC5)cc4)nc3N)ncn2)CC1 [Compound 38]	< 50	< 50	–	–
CC(=O)N1CCCN(c2cc(-n3nc(Nc4ccc(NC(=O)C5CCOCC5)cc4)nc3N)ncn2)CC1 [Compound 26]	< 50	< 50	–	–
CCCS(=O)(=O)N1CCCN(c2cc(-n3nc(Nc4ccc(N5CCN(C(=O)OCC)CC5)cc4)nc3N)ncn2)CC1 [Compound 146]	50 to 500	50 to 500	–	–
CCCOC(=O)N1CCN(c2ccc(Nc3nc(N)n(-c4cc(N5CCCN(C(=O)CC#N)CC5)ncn4)n3)cc2)CC1 [Compound 125]	< 50	< 50	–	–
Cc1ccc(OC(=O)Nc2ccc(Nc3nc(N)n(-c4cc(N5CCCN(C(=O)CC#N)CC5)ncn4)n3)cc2)cc1 [Compound 138]	< 50	< 50	–	–
CC(=O)Nc1ccc(Nc2nc(N)n(-c3ccnc(N4C[C@@H](C)N(C(C)=O)[C@@H](C)C4)c3)n2)cc1 [Compound 35, N-(4-{1-[2-(4-Acetyl-3,5-dimethyl-piperazin-1-yl)-pyridin-4-yl]-5-amino-1H-[1,2,4]triazol-3-ylamino}-phenyl)-acetamide]	< 50	< 50	–	–
CC(=O)N1[C@H](C)CN(c2cc(-n3nc(Nc4ccc(NC(=O)Nc5ccc(C(F)(F)F)cc5)cc4)nc3N)ncn2)C[C@@H]1C [Compound 74]	< 50	< 50	–	–
CCCOC(=O)N1CCN(c2ccc(Nc3nc(N)n(-c4ccnc(N5CCCN(C(=O)CC#N)CC5)c4)n3)cc2)CC1 [Compound 140]	< 50	< 50	–	–
CNc1ccc(Nc2nc(N)n(-c3cc(N4CCCN(C(C)=O)CC4)ncn3)n2)cc1 [Compound 117]	< 50	< 50	–	–
CC(=O)N1[C@H](C)CN(c2cc(-n3nc(Nc4ccc(NC(=O)O[C@H]5C[C@H](C)CC[C@H]5C(C)C)cc4)nc3N)ncn2)C[C@@H]1C [Compound 82]	50 to 500	< 50	–	–
CCCOC(=O)N1CCCN(c2cc(-n3nc(Nc4ccc(N5CCN(C(=O)OCC)CC5)cc4)nc3N)ccn2)CC1 [Compound 150]	50 to 500	50 to 500	–	–
CC(=O)N1CCCN(c2cc(-n3nc(Nc4ccc(N(C)C(=O)OC(C)(C)C)cc4)nc3N)ncn2)CC1 [Compound 115]	< 50	< 50	–	–
CC(=O)N1CCCN(c2cc(-n3nc(Nc4ccc(NC(=O)c5ccco5)cc4)nc3N)ncn2)CC1 [Compound 30]	< 50	< 50	–	–
Nc1nc(Nc2ccc(N3CCOCC3)cc2)nn1-c1cc(N2CCCCCC2)ncn1 [Compound 15]	< 50	< 50	–	–
CC(=O)N1[C@H](C)CN(c2cc(-n3nc(Nc4ccc(N5CCN(C(=O)OC(C)C)CC5)cc4)nc3N)ncn2)C[C@@H]1C [Compound 56]	< 50	< 50	–	–
CC(=O)N1[C@H](C)CN(c2cc(-n3nc(Nc4ccc(N5CCN(C(=O)OCC(C)C)CC5)cc4)nc3N)ncn2)C[C@@H]1C [Compound 58]	< 50	< 50	–	–
CC(=O)N1[C@H](C)CN(c2cc(-n3nc(Nc4ccc(N5CCN(C(=O)NC(C)C)CC5)cc4)nc3N)ncn2)C[C@@H]1C [Compound 62]	< 50	< 50	–	–
CC(=O)N1CCCN(c2cc(-n3nc(Nc4ccc(NC(=O)OC(C)(C)C)cc4)nc3N)ncn2)CC1 [Compound 21]	< 50	< 50	–	–

SMILES	Ki (JAK3; [1]) [nM]	Ki (JAK-2 enzyme; [2]) [nM]	Ki (JAK3) [nM]	Ki (JAK-2 enzyme) [nM]
CCOC(=O)N1CCCN(c2cc(-n3nc(Nc4ccc(N5CCN(C(=O)OC(C)C)CC5)cc4)nc3N)ccn2)CC1 [Compound 157]	50 to 500	50 to 500	–	–
CC(=O)N1CCCN(c2cc(-n3nc(Nc4ccc(N5CCN(C(=O)C6CC6)CC5)cc4)nc3N)ncn2)CC1 [Compound 39]	< 50	< 50	–	–
CC(=O)N1[C@H](C)CN(c2cc(-n3nc(Nc4ccc(NC(=O)NC(C)(C)C)cc4)nc3N)ccn2)C[C@@H]1C [Compound 108]	< 50	< 50	–	–
CC(=O)N1[C@H](C)CN(c2cc(-n3nc(Nc4ccc(N5CCN(C(=O)NC(C)(C)C)CC5)cc4)nc3N)ncn2)C[C@@H]1C [Compound 63]	< 50	< 50	–	–
CCNC(=O)Nc1ccc(Nc2nc(N)n(-c3ccnc(N4C[C@@H](C)N(C(C)=O)[C@@H](C)C4)c3)n2)cc1 [Compound 105]	< 50	< 50	–	–
CC(=O)N1CCCN(c2cc(-n3nc(Nc4ccc(N)cc4)nc3N)ncn2)CC1 [Compound 20]	< 50	< 50	–	–
CCOC(=O)N1CCN(c2ccc(Nc3nc(N)n(-c4ccnc(N5CCCN(C(=O)OC(C)C)CC5)c4)n3)cc2)CC1 [Compound 151]	50 to 500	50 to 500	–	–
CCOC(=O)N1CCN(c2ccc(Nc3nc(N)n(-c4cc(N5CCCN(S(=O)(=O)CC)CC5)ncn4)n3)cc2)CC1 [Compound 145]	50 to 500	50 to 500	–	–
CCOC(=O)N1CCN(c2ccc(Nc3nc(N)n(-c4cc(N5CCCN(S(C)(=O)=O)CC5)ncn4)n3)cc2)CC1 [Compound 144]	50 to 500	50 to 500	–	–
CCCOC(=O)N(C)c1ccc(Nc2nc(N)n(-c3cc(N4C[C@@H](C)N(C(C)=O)[C@@H](C)C4)ncn3)n2)cc1 [Compound 118]	< 50	< 50	–	–
CC(=O)N1CCCN(c2cc(-n3nc(Nc4ccc(N(C)C(=O)Oc5ccc(C)cc5)cc4)nc3N)ncn2)CC1 [Compound 133]	–	–	< 50	< 50
CC(=O)N1[C@H](C)CN(c2cc(-n3nc(Nc4ccc(N5CCOCC5)cc4)nc3N)ncn2)C[C@@H]1C [Compound 16]	< 50	< 50	–	–
CC(=O)N1[C@H](C)CN(c2cc(-n3nc(Nc4ccc(NC(=O)OC(C)(C)C)cc4)nc3N)ccn2)C[C@@H]1C [Compound 109]	< 50	< 50	–	–
CCCOC(=O)N1CCN(c2ccc(Nc3nc(N)n(-c4ccnc(N5CCCN(C(=O)OC)CC5)c4)n3)cc2)CC1 [Compound 158]	50 to 500	50 to 500	–	–
COC(=O)N1CCCN(c2cc(-n3nc(Nc4ccc(N5CCOCC5)cc4)nc3N)ncn2)CC1 [Compound 8]	< 50	< 50	–	–
CC(=O)N1[C@H](C)CN(c2cc(-n3nc(Nc4ccc(N(C)C(=O)OCC(C)C)cc4)nc3N)ncn2)C[C@@H]1C [Compound 120]	< 50	< 50	–	–
CC(=O)N1CCCN(c2cc(-n3nc(Nc4ccc(N5CCN(C(=O)OC6CCOC6)CC5)cc4)nc3N)ncn2)CC1 (stereo not drawn) [Compound 43]	< 50	< 50	–	–
CC(=O)N1CCCN(c2cc(-n3nc(Nc4ccc(N5CCN(C(=O)OC(C)(C)C)CC5)cc4)nc3N)ncn2)CC1 [Compound 34]	< 50	< 50	–	–
CNc1ccc(Nc2nc(N)n(-c3cc(N4C[C@@H](C)N(C(C)=O)[C@@H](C)C4)ncn3)n2)cc1 [Compound 116]	< 50	< 50	–	–
CC(=O)N1[C@H](C)CN(c2cc(-n3nc(Nc4ccc(NC(=O)O[C@@H]5C[C@@H](C)CC[C@@H]5C(C)C)cc4)nc3N)ncn2)C[C@@H]1C [Compound 83]	–	< 50	–	–
